# Where two headings read alike, the source gives them in different places. Where no end group is shown, it is not given here.
# What was measured:
# [1] = tested on: Acinetobacter baumannii (KCCM 40203); test: microbe, parasite or virus in culture
# Excerpt: (§1) The Gram-negative bacterial strain Escherichia coli (KCTC 1682) and Gram-positive bacterial strain Staphylococcus aureus (KCTC 1621) were purchased from the Korean Collection for Type Cultures (Jeongeup, Korea). Acinetobacter baumannii (KCCM 40203) were purchased from Korea Culture Center of Microorganisms (Seoul, Korea). Additionally, five carbapenem-resistant Acinetobacter baumanii C1–C5 (CRAB C1–C5), which have the OXA-23 gene with carbapenem-resistance were collected from the patients with CRAB bacteremia, who presented symptoms and signs of infection at Korea University Anam Hospital (Seoul, Korea) (IRB registration no. 2020AN0157). The minimum inhibitory concentrations (MIC) of the AMP and antibiotics against the various bacterial strains were assessed using the serial dilution method on Muller–Hinton (MH) media, as described previously. […] Absorbance at 600 nm was measured using a SpectraMAX microplate reader (Molecular Devices, San Jose, CA, USA).
# (§2) Measurement of the minimum inhibitory concentrations (MIC) was conducted to determine the effect of the hydrophobicity of each antimicrobial peptide on its antimicrobial activity. MIC was defined as the minimum concentration that killed more than 99% of bacteria; it was measured against two standard Gram-negative bacteria (E. coli and A. baumanii), five clinically isolated CRAB (C1–C5), and one Gram-positive bacteria (S. aureus).
# CRAB C1 [2] = test: microbe, parasite or virus in culture; details: 16 h
# Excerpt: as §1, §2
# CRAB C2 [3] = test: microbe, parasite or virus in culture; details: 16 h
# Excerpt: as §1, §2
# CRAB C3 [4] = test: microbe, parasite or virus in culture; details: 16 h
# Excerpt: as §1, §2
# CRAB C4 [5] = test: microbe, parasite or virus in culture; details: 16 h
# Excerpt: as §1, §2
# CRAB C5 [6] = test: microbe, parasite or virus in culture; details: 16 h
# Excerpt: as §1, §2
# [7] = tested on: Escherichia coli (KCTC 1682); test: microbe, parasite or virus in culture
# Excerpt: as §1, §2
# [8] = tested on: Staphylococcus aureus (KCTC 1621); test: microbe, parasite or virus in culture
# Excerpt: as §1, §2
# [9] = tested on: Gram-negative bacterial strains; test: organism not typed
# Excerpt: as §1
# Geometric means (GM) were calculated to compare the relative antimicrobial activities of the analogs against Gram-negative bacteria. […] Next, the antibacterial mechanisms of peptides were investigated.
# HEK-293 cells = test: Cytotoxicity, WST-8 Cell Proliferation Assay; type: cell-based, human; details: 64 μg·mL^−1, 24 h, WST-8
# Description: (§3) Human embryonic kidney (HEK)-293 cells, purchased from Korean cell line bank (Seoul, Korea) were cultured in Dulbecco’s modified Eagle’s medium (DMEM) (Welgene, Gyeong-san, Korea) with 10% fetal bovine serum, 1% penicillin-streptomycin at 37 °C in a humidified 5% CO2 incubator as described previously. The cytotoxicity of the six PapMA peptides and melittin was determined using WST-8 Cell Proliferation Assay Kit (Biomax Co, Ltd., Seoul, Korea), according to the manufacturer’s instructions. […] The absorbance was measured at 450 nm using a SpectraMAX microplate reader (Molecular Devices).
# Figure 4 Cytotoxicity of PapMA analogs. (A) Cytotoxicity of PapMA and its analogs against HEK-293 cell. […] (B) Hemolysis activity of PapMA analogs against sRBC. The peptide was serially diluted and incubated with sRBC for 1 h with melittin as a control. Statistical analysis was performed using two-way ANOVA with Dunnett’s comparison test. The values are expressed as the mean ± SEM of three independent experiments and are statistically significant at ** p < 0.01; and *** p < 0.001. ns, not significant.
# HaCaT cells = test: Cytotoxicity, WST-8 Cell Proliferation Assay; type: cell-based, human; details: 32 μg·mL^−1, 24 h and 48 h, compared to blank control
# Description: as §3
# Figure 10 Cytotoxicity of PapMA-3 (A) Cytotoxicity of PapMA-3 against HEK-293 cells at 24 h and 48 h. (B) Cytotoxicity of PapMA-3 against HaCaT cell at 24 h and 48 h. Statistical analysis was performed using two-way ANOVA with Dunnett’s comparison test. The values are expressed as the mean ± SEM of three independent experiments and are statistically significant at * p < 0.05; *** p < 0.001; ns, not significant.
# CRAB C1 [10] = test: microbe, parasite or virus in culture; details: 16 h; remark: listed apart in the source
# Description: (§4) The synergistic effects of AMPs and antibiotics were measured using checkerboard assays. Serial dilutions of PapMA-3 and antibiotics were performed from 1 to […] of the MIC. Samples were then cross-mixed and cultured in MH medium with 2 × 10^5 CFU·ml^−^1 bacteria. Results were recorded after 16 h of incubation at 37 °C. The fractional inhibitory concentration index (FICI) was calculated according to the European Committee on Antimicrobial Susceptibility (EUCAST).
# (§5) The ability of PapMA-3 to facilitate these antibiotics in penetrating the bacterial membranes of Gram-negative bacteria was investigated.
# CRAB C2 [11] = test: microbe, parasite or virus in culture; details: 16 h; remark: listed apart in the source
# Description: as §4, §5
# CRAB C3 [12] = test: microbe, parasite or virus in culture; details: 16 h; remark: listed apart in the source
# Description: as §4, §5
# CRAB C4 [13] = test: microbe, parasite or virus in culture; details: 16 h; remark: listed apart in the source
# Description: as §4, §5
# CRAB C5 [14] = test: microbe, parasite or virus in culture; details: 16 h; remark: listed apart in the source
# Description: as §4, §5
# CRAB C1 [15] = details: 50% human serum in MH medium, 16 h, 37 °C; measure of serum stability
# Description: Antibacterial activity of PapMA-3 in combination with imipenem was measured against CRAB C1 in the presence of 50% human serum. The treated cells were incubated for 16 h at 37 °C, and the absorbance at 600 nm was measured using a SpectraMAX microplate reader (Molecular Devices).
# CRAB C1 biofilm = test: Biofilm inhibition, crystal violet; type: cell-based, carbapenem-resistant Acinetobacter baumannii; details: Acinetobacter baumannii; 32 μg·mL^−1, CRAB C1, compared to the control; read-out: percentage of biofilm inhibition
# Description: CRAB C1 cells (2 × 10^5 CFU·mL^−^1) were incubated with PapMA-3 and antibiotics in a tissue-culture well plate in MH medium containing 0.2% glucose for 16 h at 37 °C. The cells were stained with 0.1% (w/v) crystal violet in 0.25% (v/v) acetic acid for 1 h at room temperature; the dye complex was dissolved with ethanol. Absorbance at 595 nm was measured using SpectraMAX microplate reader (Molecular Devices) to quantify the biofilm formation.
# Biofilms were quantified by staining with crystal violet. (A) Absorbance of crystal violet-stained biofilms with treatment of PapMA-3 and antibiotics at a concentration range of 32 to 512 μg·mL^−1, assessed at 595 nm. […] CRAB C1 without peptides or antibiotics served as the control (red). Statistical analysis was performed using two-way ANOVA with Dunnett’s comparison test. The values are expressed as the mean ± SEM of three independent experiments and are statistically significant at ** p < 0.01 and *** p < 0.001. ns, not significant.
# CRAB C1 [16] = test: FE-SEM of membrane damage; type: cell-based, carbapenem-resistant Acinetobacter baumannii; details: erythromycin 128 μg·mL^−1 alone, 1 h and 2 h
# Description: The cells were washed using PBS, fixed in 1% osmium tetroxide for 1 h, and dehydrated using a graded ethanol series. After dehydration, ethanol contents in the sample were replaced with varying ratio (2:1, 1:1, 1:2, 0:1 v/v) of ethanol–isoamyl acetate mixture. The cells were fixed on a glass slide with hexamethyldisilzane, dried under reduced pressure, and platinum-coated; they were visualized using an FE-SEM (SU8020; Hitachi, Tokyo, Japan).
# Figure 7 FE-SEM images of CRAB C1 treated with PapMA-3. (A) Only CRAB C1. […] (F–I) same experiments after incubation for 1 h, respectively.
# [17] = MH media, 2 × 10^5 CFU·mL^−1, 37 °C, absorbance 600 nm
# [18] = checkerboard table, single agent, MH medium, 37 °C
compound,measurement,setting,value
RWKIFKKIPKFLHSAKKW-NH2 [PapMA-3],"Minimum Inhibitory Concentration, A. baumanii","[1]; KCCM 40203, 16 h",16 µg/mL
same,"Minimum Inhibitory Concentration, A. baumannii, MH Media","[1]; KCCM 40203, 16 h",16 µg/mL
same,"Minimum Inhibitory Concentration, CRAB C1, MH Media","CRAB C1 [2]; MH media without serum, 37 °C",16 µg/mL
same,"Minimum Inhibitory Concentration, CRAB C1",CRAB C1 [2]; [17],16 µg/mL
same,"Minimum Inhibitory Concentration, CRAB C2",CRAB C2 [3]; [17],16 µg/mL
same,"Minimum Inhibitory Concentration, CRAB C3",CRAB C3 [4]; [17],16 µg/mL
same,"Minimum Inhibitory Concentration, CRAB C4",CRAB C4 [5]; [17],32 µg/mL
same,"Minimum Inhibitory Concentration, CRAB C5",CRAB C5 [6]; [17],16 µg/mL
same,"Minimum Inhibitory Concentration, E. coli, MH Media","[7]; KCTC 1682, 16 h",16 µg/mL
same,"Minimum Inhibitory Concentration, E. coli","[7]; MH media, 2 × 10^5 CFU·mL^−1, 37 °C, 16 h, absorbance 600 nm, MIC kills more than 99% of bacteria",16 µg/mL
same,"Minimum Inhibitory Concentration, S.aureus","[8]; KCTC 1621, 16 h",32 µg/mL
same,GM (mean MIC of Gram-negative bacterial strains),"[9]; seven Gram-negative strains, 256 assumed for MIC > 128 and 1024 for MIC > 512 μg·mL^−1",18 µg/mL
same,survival rate of HEK-293 cells,HEK-293 cells,100%
same,"cell proliferation and viability, HaCaT",HaCaT cells,remained unaltered
same,"MIC alone, CRAB C1",CRAB C1 [10]; [18],16 µg/mL
same,"MIC alone, CRAB C2",CRAB C2 [11]; [18],16 µg/mL
same,"MIC alone, CRAB C3",CRAB C3 [12]; [18],16 µg/mL
same,"MIC alone, CRAB C4",CRAB C4 [13]; [18],32 µg/mL
same,"MIC alone, CRAB C5",CRAB C5 [14]; [18],16 µg/mL
same,"Minimum Inhibitory Concentration, CRAB C1, + Serum (50%)",CRAB C1 [15],64 µg/mL
CC[C@H]1OC(=O)[C@H](C)[C@@H](O[C@H]2C[C@@](C)(OC)[C@@H](O)[C@H](C)O2)[C@H](C)[C@@H](O[C@@H]2O[C@H](C)C[C@H](N(C)C)[C@H]2O)[C@](C)(O)C[C@@H](C)C(=O)[C@H](C)[C@@H](O)[C@]1(C)O [Erythromycin],MIC,"[1]; Acinetobacter baumannii, KCCM40203, 16 h, read-out: Minimum Inhibitory Concentration, A. baumanii",32 µg/mL
same,MIC,"CRAB C1 [2]; Acinetobacter baumannii, read-out: Minimum Inhibitory Concentration, CRAB C1",> 512 µg/mL
same,MIC,"CRAB C2 [3]; Acinetobacter baumannii, read-out: Minimum Inhibitory Concentration, CRAB C2",512 µg/mL
same,MIC,"CRAB C3 [4]; Acinetobacter baumannii, read-out: Minimum Inhibitory Concentration, CRAB C3",512 µg/mL
same,MIC,"CRAB C4 [5]; Acinetobacter baumannii, read-out: Minimum Inhibitory Concentration, CRAB C4",> 512 µg/mL
same,MIC,"CRAB C5 [6]; Acinetobacter baumannii, read-out: Minimum Inhibitory Concentration, CRAB C5",> 512 µg/mL
same,MIC,"[7]; Escherichia coli, KCTC1682, 16 h, read-out: Minimum Inhibitory Concentration, E. coli",16 µg/mL
same,MIC,"[8]; Staphylococcus aureus, KCTC1621, 16 h, read-out: Minimum Inhibitory Concentration, S.aureus",0.25 µg/mL
same,MIC,[9]; read-out: GM (mean MIC of Gram-negative bacterial strains),592 µg/mL
same,MIC,"CRAB C1 [10]; Acinetobacter baumannii, read-out: MIC alone, CRAB C1",> 512 µg/mL
same,MIC,"CRAB C2 [11]; Acinetobacter baumannii, read-out: MIC alone, CRAB C2",512 µg/mL
same,MIC,"CRAB C3 [12]; Acinetobacter baumannii, read-out: MIC alone, CRAB C3",512 µg/mL
same,MIC,"CRAB C4 [13]; Acinetobacter baumannii, read-out: MIC alone, CRAB C4",> 512 µg/mL
same,MIC,"CRAB C5 [14]; Acinetobacter baumannii, read-out: MIC alone, CRAB C5",> 512 µg/mL
same,inhibition at 32 µg/mL,CRAB C1 biofilm,37.7%
same,membrane integrity of CRAB C1 (FE-SEM),CRAB C1 [16],not altered
